Measurements published in patent publication US20010023252A1, “Novel compound” (SmithKline Beecham Plc, priority 1998, published 2001).

Experiment: Aqueous solubility of the salt (stated in words)
Format: physicochemical
Conditions: water, compared with the hydrochloride salt

For paroxetine methanesulfonate, the “aqueous solubility (in words)” value was “highly water soluble” and the “aqueous solubility (in words)” value (listed as methanesulfonate salt of paroxetine) was “significantly more soluble than the hydrochloride salt”.
